# Measurements reported in patent publication US20050175580A1, “Compositions and methods for enhancing cytokine activity and treating hypotension associated with the administration of cytokines” (priority 2001, published 2005).
# “Also recorded” adds a separate entry of the source.
# How the values were obtained:
# mice [1] = assay: IL-2 dose escalation study with or without M40403 (deaths, blood pressure); type: in vivo
# Experimental: Analysis was performed using Chart 3.6.1 software (AD instruments).
# Meth A tumor [2] = assay: NO-mediated apoptosis of Meth A tumor (not shown); type: cell-based, mouse
# NO = assay: Inhibition of NO (not shown)
# Meth A tumor [3] = assay: Meth A fibrosarcoma tumor model (malignant ascites), survival; type: in vivo, BALB/c mice
# From the text: Meth A was induced in a BALB/c mouse by methylcholanthrene treatment (obtained from Lloyd Old, MSKCC). This very aggressive fibrosarcoma is one of the rare tumors resistant to LAK cell mediated cytolysis in vitro. […] See Yim et al., J. Immunol. 155: 4382-4390 (1995).
# Survival of the mice was used as the major endpoint to assess therapeutic responses.
# mice [4] = assay: IL-2 induced hypotension in mice, systolic blood pressure via tail cuff; type: in vivo
# Experimental: Parallel groups of untreated mice or mice receiving M40403 alone (at the highest dose tested of 3 mg/kg) served as a control. […] Analysis was performed using Chart 3.6.1 software (AD instruments).
# Preliminary experiments were also performed with M40401.
# RD-995 tumor = assay: Rosenberg tumor model, RD-995 pulmonary metastases; type: in vivo, mice
# Experimental: RD-995 is a skin fibrosarcoma that was induced by chronic ultraviolet light exposure of a C3H/HeN mouse (Samlowski et al., 1995). This tumor grows in non-immunosuppressed mice, and is thus termed a “progressor” tumor.
# Once stabilized, mice were injected with 10^6 RD-995 tumor cells intravenously. […] On day 14, mice were sacrificed by anesthetic overdose. After anterior thoracotomy, India ink solution (30 ml India ink, 4 drops ammonium hydroxide in 170 ml distilled water) was instilled into the trachea of each mouse via 18 ga. needle, until the lungs were completely expanded. Lungs were then excised and bleached in 5-10 ml Fekete's solution (100 ml 70% ethanol, 10 ml formaldehyde, 5 ml glacial acetic acid) for at least 24 h prior to enumeration of metastases using a magnifying lens.
# murine (mouse) LAK cell = assay: LAK cell induction in vitro, murine splenocytes activated with IL-2, cytotoxicity against RD-995 tumor, trypan blue viability; type: cell-based
# Experimental: Non-M40403 exposed cultures served as a positive control. After 72 h, LAK cells were harvested and cell viability evaluated. LAK cells cytotoxicity was tested against RD-995 tumor in triplicate samples at varying effector to target cell ratios (expressed as mean±SD) using previously published methods (Yim et al., 1994; Samlowski et al., 1998).
# Cell viability was assessed by trypan blue exclusion. Viability remained at 100% of control at up to 10 μM M40403 (not shown).
# LAK cells = assay: LAK cell induction in vivo, 51Cr release of lymph node and spleen cells against RD-995 tumor; design: species or system mice
# Experimental: Parallel groups of untreated mice or mice receiving M40403 alone (at the highest dose tested of 3 mg/kg) served as a control. […] A single cell suspension was prepared from the lymph nodes and spleen from each animal, and serial dilutions made (starting from 10^6). Cytolytic activity of lymph node and spleen cells was tested against ^51Cr-radiolabeled RD-995 tumor (NK resistant, LAK sensitive, 10^4 cells) in a standard 4h ^51Cr release assay at a varying effector to target cell ratio (in triplicate). […] Statistical comparison of specific cytotoxicity (e.g. at 100:1 effector to target ratio) and lytic units per organ will be performed using Student's t-test, using Bonferroni's correction for multiple analyses.
# [5] = M40403 at highest dose, 3 mg/kg b.i.d. for 5 days
# [6] = M40403 3 mg/kg i.p. b.i.d. in conjunction with IL-2 180,000 IU for 5 days
compound,measurement,setting,value
[Cl-].[Cl-].[Mn+2].c1cc2nc(c1)CN[C@@H]1CCCC[C@H]1NCCN[C@@H]1CCCC[C@H]1NC2 [M40403],blood pressure under escalating doses of IL-2,mice [1]; M40403 3 mg/kg i.p. b.i.d. in conjunction with IL-2,allowed BP to be maintained
same,deaths,"mice [1]; M40403 3 mg/kg i.p. b.i.d. in conjunction with IL-2, all doses of IL-2 (180,000-400,000 IU)",0 deaths of 6 mice
same,effect on NO-mediated apoptosis of Meth A tumor,Meth A tumor [2],does not affect
same,inhibition of NO,NO,does not inhibit
same,"IL-2 induced anti-tumor responses, combination of IL-2 with M40403","Meth A tumor [3]; IL-2 180,000 IU s.c. with M40403 3 mg/kg s.c.",improves IL-2 induced anti-tumor responses
same,effect on survival,"Meth A tumor [3]; M40403 itself, 3 mg/kg s.c.",did not affect survival
same,effect on systolic blood pressure,mice [4]; [5],no effect on systolic blood pressure
same,signs of toxicity,mice [4]; [5],no apparent signs of toxicity
same,reversal / attenuation of IL-2 induced hypotension,"mice [4]; SOD mimetic i.p. b.i.d. in conjunction with IL-2 180,000 IU for 5 days",attenuated in a dose-dependent manner
same,dose at which maximal / full reversal of IL-2 induced hypotension was obtained,mice [4]; b.i.d. with IL-2 for 5 days,3 mg/kg
same,Mean Systolic BP,"mice [4]; mice, n=6 per group, IL-2 180,000 IU i.p. twice daily for 5 days, M40403 alone at 3 mg/kg, tail cuff two hours after last dose of IL-2",111.21
same,"systolic BP, mean","mice [4]; mice, n=6 per group, IL-2 180,000 IU i.p. twice daily for 5 days, M40403 alone at 3 mg/kg, two hours after last dose of IL-2",111±45 mmHg
same,effect on the anti-tumor effects of IL-2,RD-995 tumor; M40403 3 mg/kg concurrently with IL-2,did not affect the anti-tumor effects of IL-2
same,number of tumor nodules in lungs,"RD-995 tumor; single agent, IL-2 180,000 IU i.p. every 12 h for 5 days or M40403 3 mg/kg, day 14",completely eliminated
same,effect on murine LAK cell activation by IL-2,"murine (mouse) LAK cell; M40403 0-10 μM during IL-2 activation (6000 IU/ml rhIL-2), 72 h",did not adversely affect; also recorded: do not adversely affect
same,dose dependence of LAK cell activation,murine (mouse) LAK cell; increasing concentrations of M40403 during IL-2 activation,dose-dependent increase
same,cell viability,"murine (mouse) LAK cell; up to 10 μM M40403, trypan blue exclusion",100 % of control
same,"IL-2 induced LAK cells activation in vivo, lymph nodes",LAK cells; [6],significantly potentiated
same,"IL-2 induced LAK cells activation in vivo, spleen",LAK cells; [6],significantly potentiated
same,LAK cell induction in vivo,"LAK cells; M40403 by itself, 3 mg/kg",did not increase
